Entries after “also recorded” stand apart in the source; their conditions may differ.
Legend:
[1] = tested on: Okra (Abelmoschus esculentum L); assay: Phytotoxicity / crop safety on Okra in the field trial; type: in vivo; conditions: both application rates, 4 ml & 5 ml/lit of water
Procedure: (§1) Field trials were conducted to study the effect of the combination of Denatonium benzoate with insecticides. The following three combinations were tested on the control of Jassids species Amrasca bigutula bigutula in the crop of infected Okra (Abelmoschus esculentum L) over the use of insecticides alone. • Denatonium benzoate+Flonicamid • Denatonium benzoate+Thiamethoxam • Denatonium benzoate+Imidacloprid
(§2) Both phytotoxicity and percentage control of the Jassids was measured.
The safety of Denatonium Benzoate (DB) combinations according to present invention on Okra was evaluated. It is observed that the DB combinations according to the present invention are safe and no Phytotoxicity is observed.

[2] = cited from earlier work
[3] = in vivo; cited from earlier work
[4] = tested on: Amrasca bigutula bigutula; assay: Field trial: control of Jassids in infected Okra; type: in vivo; conditions: Denatonium Benzoate alone
Procedure: as §1, §2
T-1, T-2 and T-3 are the treatment with insecticidal combinations according to the present invention; T-4, T-5 and T-6 are the treatment with insecticides alone; T-7 and T-8 are the treatment with Denatonium benzoate (DB) liquid solutions alone and T-9 is the control.
Bio-efficacy of insecticidal combinations of the present invention against Jassids in infected Okra were evaluated. The percentage control of Jassids was measured. Efficacy was evaluated as: Excellent 91-100%, Very good 81-90%, Good 71-80%, Moderate 51-70%, Poor<50%.

Q: Which “Selectivity: crop safety on okra” value [1] does the source give for `CC[N+](CC)(CC(=O)Nc1c(C)cccc1C)Cc1ccccc1.O=C([O-])c1ccccc1` [Denatonium benzoate, phenylmethyl-[2-[(2,6-dimethylphenyl)amino]-2-oxoethyl]-diethylammonium benzoate] here?
A: Its value is “Good crop safety”.

Q: And the “concentration with generally recognized bitter taste” value ([2]; in vivo)?
A: The value was 50 ppb.

Q: What about the “concentration detected by the average person” value ([2]; taste detection) of the same compound?
A: The value was 10 ppb.

Q: And the “human safety in clinical trials” value [3]?
A: Its value is “extremely human safe”.

Q: And the “control of Jassids / insecticidal activity, in words” value [4]?
A: Its value is “no significant control of Jassids; also recorded: does not exhibit any insecticidal activity”.

From patent US20220046919A1, “SYNERGISTIC INSECTICIDAL COMBINATIONS” (UPL LTD, priority 2019, published 2022)
